Data set [1] has as its system platelets in platelet rich plasma (PRP), aggregation induced by ADP. The data set is described as follows: Effect on Platelet Aggregation Induced by Adenosine Diphosphate (ADP). The class given is cell-based. The following applies: dose required for complete inhibition of platelet aggregation; human PRP 3×10^8 platelets/ml, ADP final 2.5 μM, 37° C., aggregometer. The method, then: Test 1: Effect on Platelet Aggregation Induced by Adenosine Diphosphate (ADP)
Platelet rich plasma (PRP) which contains 3×10^8 platelets/ml was prepared from human blood. To the 225 μl of PRP, 25 μl of drug solution* was added, and then stirred for 2 minutes at 37° C. To the solution 5 μl of ADP (final 2.5 μM) was added as an aggregation inducer. Aggregation was measured by using an aggregometer (NBS HEMA-TRACER 801). Activity of inhibitor (test compound) was expressed as IC100 value i.e. dose required for complete inhibition of platelet aggregation.
Drug solution* — — — Test compound was dissolved in water.

In patent US6380215B1, “Beta-alanine derivative and a process for the preparation thereof” (Fujisawa Pharmaceutical Co., Ltd, priority 1993, dated 2002) one finds melting point and IC100 data, which are given here for 13 compounds.

In the case of `C[C@H](CC(=O)O)NC(=O)[C@@H]1CCCN(C(=O)CCC2CCNCC2)C1.Cl`, the melting point fell in the range of 105 to 108 °C. Same read-out and setting: then `COc1ccc(CCNC(=O)[C@H](CC(=O)O)NC(=O)[C@@H]2CCCN(C(=O)CCC3CCNCC3)C2)cc1.Cl`, with 82 °C; and `Cl.O=C(O)CC(NC(=O)[C@@H]1CCCN(C(=O)CCC2CCNCC2)C1)c1ccccc1` (some centres unmarked), with 67 °C; and `CCCCCC(=O)N[C@@H](CNC(=O)[C@@H]1CCCN(C(=O)CCC2CCNCC2)C1)C(=O)O.Cl`, with 156 to 157 °C.

As to `Cl.O=C(O)CCNC(=O)C1CCCN(C(=O)CCC2CCNCC2)C1` (centres unmarked), the melting point fell in the range of 70 to 72 °C. The same measure, in the same setting: then `Cl.O=C(O)CCNC(=O)C1CCN(C(=O)CCC2CCNCC2)CC1`, with 63 to 65 °C; and `Cl.O=C(O)CCNC(=O)CC1CCCN(C(=O)CC2CCNCC2)C1` (centres unmarked), with 73 °C; and `Cl.O=C(O)CCNC(=O)CC1CCCN(C(=O)C=C2CCNCC2)C1` (centres unmarked), with 63 °C. Still for that read-out and setting: as for `C#C[C@H](CC(=O)OCc1oc(=O)oc1C)NC(=O)[C@@H]1CCCN(C(=O)CCC2CCNCC2)C1.Cl`, the figure is 70 °C. Turning to `COC(=O)CCNC(=O)C1CCN(C(=O)CCC2CCN(C(=O)OC(C)(C)C)CC2)CC1`, the melting point came out at 79 °C. `COC(=O)CCNC(=O)CC1CCCN(C(=O)C=C2CCN(C(=O)OC(C)(C)C)CC2)C1` (centres unmarked) displayed a melting point of 121 °C.

With `COC(=O)C[C@H](N)C(=O)NC1CCCN(C(=O)CCC2CCN(C(=O)OCc3ccccc3)CC2)C1.Cl` (some centres unmarked), the melting point stood at 75 °C. Turning to `Cl.O=C(O)CCNC(=O)[C@@H]1CCCN(C(=O)CCC2CCNCC2)C1` [Example 21 (3), N-[(R)-1-{3-(4-piperidyl)propionyl}-3-piperidylcarbonyl]-β-alanine hydrochloride], the melting point worked out at 84 °C. In addition, the IC100 in data set [1] turned out to be 1000 nM.
